Patent US10287252B2, “Inhibitors of tryptophan-2,3-dioxygenase or indoleamine-2,3-dioxygenase” (IOmet Pharma Ltd., priority 2014, dated 2019)

What was measured:
[1] = molecular target: T1, IDO (Homo sapiens, UniProt P14902); test: hIDO biochemical coupled assay; settings: 45 μM L-tryptophan, coupled with kynurenine formamidase
Method: (§1) Exemplary compounds of the invention were prepared, and tested to determine their effect as TDO and/or IDO inhibitors. Two different assays were employed: 1. a cell-based assay for detecting the effect of test compounds on kynurenine production in two different cancer cell types. This assay utilised cancer cells which expressed either TDO or IDO and as such was used as a means of testing compound activity at these two enzymes in a cell-based context. 2. a TDO and IDO biochemical coupled assay which utilised recombinantly produced and purified TDO and IDO enzymes in combination with the enzyme formamidase. This coupled enzyme system allowed conversion of N-formylkynurenine produced by TDO or IDO activity to kynurenine which was then quantified by fluorescence following addition of Erhlich's Reagent The protocols for these are set out below.
(§2) TDO and IDO Biochemical Coupled Assay
(§3) Recombinant human IDO or TDO was incubated in 50 mM KPO4 (pH 7.0), 0.5 mM EGTA, 0.5 mM EDTA, 0.05% Triton™ X100, 20 mM ascorbate, 10 μM methylene blue, 500 U/ml catalase, 50 μg/ml KynB (kynurenine formamidase). TDO assays were carried out in the presence of 330 μM L-tryptophan, while IDO assays had the addition of 45 μM L-tryptophan. After incubation for 17 minutes at room temperature the reactions were stopped by the addition of Erhlich's reagent and incubated at room temperature for 5 minutes before the fluorescence was read (Ex475, Em530).

[2] = molecular target: T2, TDO (Homo sapiens, UniProt P48775); test: hTDO biochemical coupled assay; settings: 330 μM L-tryptophan, coupled with kynurenine formamidase
T2 sequence (P48775 whole entry): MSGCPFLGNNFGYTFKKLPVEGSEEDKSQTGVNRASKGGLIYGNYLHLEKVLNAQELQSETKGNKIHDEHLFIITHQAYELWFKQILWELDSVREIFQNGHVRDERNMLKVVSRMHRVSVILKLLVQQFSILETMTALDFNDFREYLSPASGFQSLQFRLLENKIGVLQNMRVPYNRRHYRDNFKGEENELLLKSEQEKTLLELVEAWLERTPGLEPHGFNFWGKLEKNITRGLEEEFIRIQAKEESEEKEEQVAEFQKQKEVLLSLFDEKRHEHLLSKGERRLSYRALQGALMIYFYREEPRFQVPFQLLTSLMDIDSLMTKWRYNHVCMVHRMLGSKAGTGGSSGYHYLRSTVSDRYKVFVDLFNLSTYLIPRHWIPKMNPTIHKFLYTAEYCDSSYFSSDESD
Method: as §1, §2, §3

[3] = molecular target: T2, TDO; test: A172 Kynurenine cell based assay; design: This assay utilised cancer cells which expressed either TDO or IDO; endogenous in cells; host or cells: A172 (human glioblastoma); settings: A172 (human glioblastoma) cells, 500 μM L-tryptophan, 48 hours, kynurenine by Erhlich's reagent
Method: as §1
(§4) Cell Based Assay for Detection of Kynurenine Produced by TDO and/or IDO
(§5) A172 (human glioblastoma) and SKOV3 (human ovarian adenocarcinoma) cells were seeded in a 96 well plate at 30,000 or 40,000 cells per well respectively in phenol red-free RPMI supplemented with 10% FCS, 2 mM L-glutamine and 500 μM L-tryptophan. IDO expression was induced in the SKOV3 cells by the addition of 500 ng/ml IFN-γ. Cells were incubated at 37° C. with or without the addition of test compound. After 48 hours, the cells were removed by centrifugation and Erhlich's reagent was added to the supernatant. The Erhlich's reagent was incubated for 5 minutes before the absorbance was read at 490 nm.

[4] = molecular target: T1, IDO; test: SKOV3 Kynurenine cell based assay; design: IDO expression was induced in the SKOV3 cells by the addition of 500 ng/ml IFN-γ; endogenous in cells; host or cells: SKOV3 (human ovarian adenocarcinoma), induced with IFN-γ; settings: SKOV3 (human ovarian adenocarcinoma) cells, IDO induced by 500 ng/ml IFN-γ, 500 μM L-tryptophan, 48 hours
Method: as §1, §4, §5

T1 sequence (P14902 whole entry): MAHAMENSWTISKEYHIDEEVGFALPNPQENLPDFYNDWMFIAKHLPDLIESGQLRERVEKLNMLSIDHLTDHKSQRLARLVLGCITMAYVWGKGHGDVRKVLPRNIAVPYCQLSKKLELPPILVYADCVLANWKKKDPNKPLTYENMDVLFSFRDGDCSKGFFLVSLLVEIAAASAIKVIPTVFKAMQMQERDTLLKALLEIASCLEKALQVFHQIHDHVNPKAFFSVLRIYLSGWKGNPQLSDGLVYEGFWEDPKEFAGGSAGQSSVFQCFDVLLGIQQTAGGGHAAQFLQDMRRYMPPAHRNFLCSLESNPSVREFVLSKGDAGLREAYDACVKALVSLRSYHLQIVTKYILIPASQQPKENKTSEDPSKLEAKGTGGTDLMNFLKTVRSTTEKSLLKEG

SMILES | hIDO biochemical assay pIC50 [1] | hTDO biochemical assay pIC50 [2] | A172 Kynurenine cell based assay pIC50 [3] | SKOV3 Kynurenine cell based assay pIC50 [4]
Cc1cc2c(NS(=O)(=O)c3ccccc3)cccc2nn1 [Compound 1] | ++ (++ = pIC50 4.50-5.49) | ++ (++ = pIC50 4.50-5.49) | + (+ = pIC50 4.00-4.49) | + (+ = pIC50 4.00-4.49)
Cc1cc2c(NC(=O)c3ccc4ncccc4c3)cccc2nn1 [Compound 2] | +/− (+/− = pIC50 <4.00) | ++ (++ = pIC50 4.50-5.49) | + (+ = pIC50 4.00-4.49) | + (+ = pIC50 4.00-4.49)
Cc1cc2c(NC(=O)c3ccc4ccccc4n3)cccc2nn1 [Compound 3] | +/− (+/− = pIC50 <4.00) | + (+ = pIC50 4.00-4.49) | + (+ = pIC50 4.00-4.49) | +/− (+/− = pIC50 <4.00)
CC(C)CS(=O)(=O)Nc1cccc2cnccc12 [Compound 4] | ++ (++ = pIC50 4.50-5.49) | +++ (+++ = pIC50 ≥5.50) | + (+ = pIC50 4.00-4.49) | +/− (+/− = pIC50 <4.00)
O=C(Nc1cccc2cnccc12)C1COc2ccccc2C1 (centres unmarked) [Compound 6] | +++ (+++ = pIC50 ≥5.50) | +++ (+++ = pIC50 ≥5.50) | + (+ = pIC50 4.00-4.49) | ++ (++ = pIC50 4.50-5.49)
O=S(=O)(Nc1cccc2cnccc12)c1ccccc1 [Compound 9] | ++ (++ = pIC50 4.50-5.49) | ++ (++ = pIC50 4.50-5.49) | +++ (+++ = pIC50 ≥5.50) | ++ (++ = pIC50 4.50-5.49)
COc1cccc(S(=O)(=O)Nc2cccc3cnccc23)c1 [Compound 14] | ++ (++ = pIC50 4.50-5.49) | – | +++ (+++ = pIC50 ≥5.50) | ++ (++ = pIC50 4.50-5.49)
O=S(=O)(Nc1cccc2cnccc12)c1cccc2ccccc12 [Compound 16] | ++ (++ = pIC50 4.50-5.49) | + (+ = pIC50 4.00-4.49) | ++ (++ = pIC50 4.50-5.49) | ++ (++ = pIC50 4.50-5.49)
O=S(=O)(Nc1cccc2ccncc12)c1ccc(-c2ccccc2)cc1 [Compound 54] | – | – | + (+ = pIC50 4.00-4.49) | + (+ = pIC50 4.00-4.49)
O=S(=O)(Nc1cccc2ccncc12)c1ccc(Cl)cc1 [Compound 55] | – | – | + (+ = pIC50 4.00-4.49) | ++ (++ = pIC50 4.50-5.49)
O=S(=O)(Nc1cccc2ccncc12)c1ccccc1 [Compound 56] | + (+ = pIC50 4.00-4.49) | +/− (+/− = pIC50 <4.00) | +/− (+/− = pIC50 <4.00) | + (+ = pIC50 4.00-4.49)
O=S(=O)(Nc1cc(Cl)cc2cnccc12)c1ccc(Cl)cc1 [Compound 57] | + (+ = pIC50 4.00-4.49) | +/− (+/− = pIC50 <4.00) | +/− (+/− = pIC50 <4.00) | ++ (++ = pIC50 4.50-5.49)
CC(C)Oc1ccc(S(=O)(=O)Nc2cc(Cl)cc3cnccc23)cc1 [Compound 58] | + (+ = pIC50 4.00-4.49) | +/− (+/− = pIC50 <4.00) | +/− (+/− = pIC50 <4.00) | ++ (++ = pIC50 4.50-5.49)
